Test results taken from paper PMC9909341, “TLQP-21 is a low potency partial C3aR activator on human primary macrophages” (Frontiers in Immunology, 2023).

How the values were obtained:
BMDM (murine C3aR) = assay type: cell-based, mouse
Description: (§1) Mouse bone marrow-derived macrophages (BMDMs) were obtained and cultured as previously described ([20], [21]). All experiments using mice were approved by the University of Queensland animal ethics committee. Wild-type and C3aR^-/- mice on a C57BL/6J genetic background (n = 3) were sacrificed by cervical dislocation. The tibia was removed and sterilised. Upon removal of both epiphyses, bone marrow cells were harvested by flushing the central cavity with complete RPMI-1640 medium using a 10 ml syringe attached to a 25-gauge needle. Cells were then cultured in complete RPMI-1640 medium (containing 10 % FBS, 100 IU/ml penicillin, 100 μg/ml streptomycin) supplemented with 100 ng/ml recombinant human macrophage colony stimulating factor on 10 mm square dishes. Mature adherent macrophages for assays were harvested on day 6-7 by gentle scraping.
Ligand-induced ERK1/2 phosphorylation was assessed using the AlphaLISA Surefire Ultra p-ERK1/2 (Thr202/Tyr204) kit (PerkinElmer, Melbourne, Australia) following the manufacturer’s protocol as previously described ([18], [20], [22]). Briefly, CHO-K1, CHO-C3aR, CHO-C5aR1, HMDMs (50,000/well) or BMDMs (90,000/well) were seeded in tissue culture-treated 96-well plates (Corning, Corning, USA) for 24 h and serum-starved overnight. All ligand dilutions were prepared in serum-free medium (SFM) containing 0.1% BSA. For inhibition assays, cells were pre-treated with the following ligands (5 µM SB290157, or respective concentrations of hC3a, mC3a, hC5a, hTLQP-21, and mTLQP-21) or the solvent-only control for 30 min before agonist (hC3a, hTLQP-21 and mTLQP-21) addition. The concentration and identity of the ligands are described in detail in the figure legends. For stimulation, cells were treated with ligands at the indicated concentrations for 10 min at RT and then immediately lysed using AlphaLISA lysis buffer on a microplate shaker (450 rpm, 10 min). For the detection of phospho-ERK1/2 content, cell lysate (5 μL/well) was transferred to a 384-well ProxiPlate (PerkinElmer, Melbourne, Australia) and added to the donor and acceptor reaction mix (2.5 μL/well, respectively), followed by a 2-h incubation at RT in the dark. On a Tecan Spark 20M (Tecan, Männedorf, Switzerland), the plate was measured using standard AlphaLISA settings.
All experiments were conducted in triplicates and repeated on three separate occasions unless otherwise specified. Data was analysed using GraphPad software (Prism 9.1). Data from each individual repeat was normalised accordingly (as specified in the figure legends) before being combined and expressed as mean ± standard error of the mean (S.E.M.) unless otherwise described. For all dose-response studies, logarithmic concentration-response curves were plotted using combined data and analysed to determine the respective potency values. Statistical analysis was performed using two-way ANOVA with Dunnett’s post hoc analysis. Donor-matched comparisons were made for HMDM experiments. Differences were deemed significant when p < 0.05.
Figure 4 TLQP-21 triggers ERK signalling through C3aR in murine bone marrow-derive macrophages. BMDMs (90,000/well) from wildtype mice (A) or with C3aR knockout mice (B), were serum-starved overnight and then stimulated with respective ligands at the indicated concentrations for 10 min. The phospho-ERK1/2 content in the cell lysate was measured and normalised to the medium only-treated levels before being combined. Data represent mean ± S.E.M. of triplicate measurements using cells from 3 mice (n = 3).

HMDMs = assay: homologous desensitisation control in HMDMs; assay type: cell-based, human; conditions: pre-treatment 10 nM hC3a, 10 μM hTLQP-21 or mTLQP-21 for 30 min, then same ligand 10 min
Text: HMDMs were generated and cultured as previously described ([20]), with experiments approved by The University of Queensland Human Research Ethics Committee. Briefly, human buffy coat blood from anonymous healthy donors was obtained through the Australian Red Cross Blood Service (Brisbane, Australia). Human CD14+ monocytes were isolated from blood using Lymphoprep density centrifugation (STEMCELL, Melbourne, Australia) followed by CD14+ MACS magnetic bead separation (Miltenyi Biotec, Sydney, Australia). […]
(§2) Ligand-induced ERK1/2 phosphorylation was assessed using the AlphaLISA Surefire Ultra p-ERK1/2 (Thr202/Tyr204) kit (PerkinElmer, Melbourne, Australia) following the manufacturer’s protocol as previously described ([18], [20], [22]). […] On a Tecan Spark 20M (Tecan, Männedorf, Switzerland), the plate was measured using standard AlphaLISA settings.
Figure 3 Agonistic and antagonistic activities of hTLQP-21 and mTLQP-21 in human monocyte-derived macrophages. […] The phospho-ERK1/2 content in the cell lysate was measured and normalised to the maximum hC3a/hC5a-induced levels before being combined. […]

C3aR-deficient BMDMs = assay: phospho-ERK1/2 assay in C3aR-deficient BMDMs; assay type: cell-based, mouse; conditions: 10 min stimulation; n = 3 mice
Description: as §1, with “Mature adherent macrophages for assays were harvested on day 6-7 by gentle scraping.” left out
as §2
Figure 4 TLQP-21 triggers ERK signalling through C3aR in murine bone marrow-derive macrophages. […] The phospho-ERK1/2 content in the cell lysate was measured and normalised to the medium only-treated levels before being combined. […]

Substance	% C3a activity ± SE, BMDM (BMDM (murine C3aR); relative to mC3a, wild-type BMDMs) [%]	logEC50 ± SE (pERK1/2), BMDM (BMDM (murine C3aR); wild-type BMDMs, 10 min stimulation at RT, C3a is recombinant mouse C3a)	EC50 (BMDM (murine C3aR); wild-type C57BL/6J BMDMs, 90,000/well, 10 min stimulation at RT, AlphaLISA p-ERK1/2, n = 3 mice, C3a is recombinant mouse C3a, read-out: EC50 (pERK1/2), BMDM) [nM]	homologous desensitisation of ERK activity (HMDMs)	ERK signalling in C3aR-deficient BMDMs (C3aR-deficient BMDMs)
C3a: Table 1 label: human C3a in CHO-C3aR and HMDM, recombinant mouse C3a in BMDM	100 ± 4.1	-8.1 ± 0.1	8.4	–	–
hC3a: purified (plasma-derived) human C3a, purchased from Merck	–	–	–	significantly dampened the subsequent ERK activity triggered by these ligands	Neither hC3a, nor the TLQP-21 peptides caused any significant ERK signalling activity in C3aR-deficient cells
